Active and inactive are the calls of the source. The rule behind the calls is not given here.
Columns and labels:
SK-HEP1 [1] = experiment: Antiproliferative activity against human SK-HEP1 cells treated for 72 hrs by MTT assay; type: functional, cell-based; details: SK-HEP1, 72 h
[2] = Antiproliferative activity against human L02 cells treated for 72 hrs by MTT assay; type: toxicity, cell-based
[3] = target: T1, DNA topoisomerase 1 (Homo sapiens) (UniProt P11387); experiment: Inhibition of Top1 (unknown origin) assessed as inhibition of relaxation of supercoiled pBR322 plasmid DNA at 12.5 uM incubated for 25 mins by ethidium bromide staining based agarose gel electrophoresis analysis relative to control
T1 sequence (whole entry): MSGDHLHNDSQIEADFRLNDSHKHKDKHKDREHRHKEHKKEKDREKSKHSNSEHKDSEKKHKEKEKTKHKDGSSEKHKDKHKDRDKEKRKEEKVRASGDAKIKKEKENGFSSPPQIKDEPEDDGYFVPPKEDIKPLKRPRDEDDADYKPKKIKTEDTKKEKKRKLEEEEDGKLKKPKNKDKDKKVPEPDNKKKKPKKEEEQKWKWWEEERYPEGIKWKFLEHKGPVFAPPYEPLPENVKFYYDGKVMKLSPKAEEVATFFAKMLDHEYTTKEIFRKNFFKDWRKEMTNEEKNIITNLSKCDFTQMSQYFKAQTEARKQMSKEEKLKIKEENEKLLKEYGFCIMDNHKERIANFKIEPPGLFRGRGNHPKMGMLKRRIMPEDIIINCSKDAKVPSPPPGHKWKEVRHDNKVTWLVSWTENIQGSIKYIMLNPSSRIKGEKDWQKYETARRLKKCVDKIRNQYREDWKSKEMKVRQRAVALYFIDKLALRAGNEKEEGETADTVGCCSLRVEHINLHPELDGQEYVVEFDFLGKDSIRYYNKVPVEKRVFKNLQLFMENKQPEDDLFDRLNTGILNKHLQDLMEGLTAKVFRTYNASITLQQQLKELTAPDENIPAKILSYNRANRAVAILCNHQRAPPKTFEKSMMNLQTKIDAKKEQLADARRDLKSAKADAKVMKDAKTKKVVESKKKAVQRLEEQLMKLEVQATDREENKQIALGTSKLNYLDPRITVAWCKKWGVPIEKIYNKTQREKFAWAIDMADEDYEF

Huh-7 [4] = experiment: Antiproliferative activity against human Huh-7 cells assessed as inhibition of cell viability treated for 24 to 72 hrs by MTT assay; type: functional, cell-based; details: time 24-72 hrs, DDE = dose-dependent effect
Huh-7 [5] = experiment: Induction of cell cycle arrest in human Huh-7 cells assessed as accumulation at G2 phase at 80 nM treated for 24 hrs by PI staining based flow cytometry (reference value: 15.90 %); type: functional
Huh-7 [6] = experiment: Induction of cell cycle arrest in human Huh-7 cells assessed as accumulation at G2 phase at 40 nM treated for 24 hrs by PI staining based flow cytometry (reference value: 15.90 %); type: functional
Huh-7 [7] = experiment: Induction of cell cycle arrest in human Huh-7 cells assessed as accumulation at G2 phase at 10 nM treated for 24 hrs by PI staining based flow cytometry (reference value: 15.90 %); type: functional
Huh-7 [8] = experiment: Induction of cell cycle arrest in human Huh-7 cells assessed as accumulation at S phase at 10 nM treated for 24 hrs by PI staining based flow cytometry (reference value: 23.33 %); type: functional
SK-HEP1 [9] = experiment: Induction of cell cycle arrest in human SK-Hep1 cells assessed as accumulation at G1 phase at 40 nM treated for 24 hrs by PI staining based flow cytometry (reference value: 58.47 %); type: functional
SK-HEP1 [10] = experiment: Induction of cell cycle arrest in human SK-Hep1 cells assessed as accumulation at G2 phase at 40 nM treated for 24 hrs by PI staining based flow cytometry (reference value: 16.55 %); type: functional
Huh-7 [11] = experiment: Induction of apoptosis in human Huh-7 cells assessed as cytoskeleton disintegration incubated for 24 hrs by Giemsa staining based microscopy; type: functional, cell-based; details: dose 12-60 nM, DDE = dose-dependent effect
SK-HEP1 [12] = experiment: Induction of apoptosis in human SK-Hep1 cells assessed as cell membrane permeability by measuring blue fluorescence incubated for 24 hrs by Hoechst staining based microscopy; type: functional; details: dose 12-60 nM, DDE = dose-dependent effect
Huh-7 [13] = experiment: Induction of apoptosis in human Huh-7 cells assessed as necrotic cells at 10 nM incubated for 24 hrs by annexin V-FITC/PI staining flow cytometry (reference value: 1.08 %); type: functional
Huh-7 [14] = experiment: Induction of apoptosis in human Huh-7 cells assessed as viable cells at 40 nM incubated for 24 hrs by annexin V-FITC/PI staining flow cytometry (reference value: 97.3 %); type: functional; details: read-out: Activity
Huh-7 [15] = experiment: Induction of apoptosis in human Huh-7 cells assessed as late apoptotic cells at 40 nM incubated for 24 hrs by annexin V-FITC/PI staining flow cytometry (reference value: 1.33 %); type: functional
Huh-7 [16] = experiment: Induction of apoptosis in human Huh-7 cells assessed as necrotic cells at 40 nM incubated for 24 hrs by annexin V-FITC/PI staining flow cytometry (reference value: 1.08 %); type: functional
SK-HEP1 [17] = experiment: Induction of apoptosis in human SK-Hep1 cells assessed as early apoptotic cells at 10 nM incubated for 24 hrs by annexin V-FITC/PI staining flow cytometry (reference value: 0.30 %); type: functional
SK-HEP1 [18] = experiment: Induction of apoptosis in human SK-Hep1 cells assessed as necrotic cells at 10 nM incubated for 24 hrs by annexin V-FITC/PI staining flow cytometry (reference value: 0.73 %); type: functional
SK-HEP1 [19] = experiment: Induction of apoptosis in human SK-Hep1 cells assessed as necrotic cells at 80 nM incubated for 24 hrs by annexin V-FITC/PI staining flow cytometry (reference value: 0.73 %); type: functional
HSC-T6 [20] = experiment: Suppression of TGF-beta-1-stimulated rat HSC-T6 cells activation assessed as reduction in Col-1 levels at 10 to 80 nM preincubated with TGFbeta-1 followed by compound addition and measured after 24 to 48 hrs by ELISA; type: functional, cell-based; details: dose 10-80 nM, time 24-48 hrs
HSC-T6 [21] = experiment: Antiproliferative activity against TGF-beta-1-stimulated rat HSC-T6 cells assessed as suppression of cell proliferation at 0.70 to 60 uM preincubated with TGFbeta-1 for 1 day followed by compound addition and measured after 48 hrs; type: functional, cell-based; details: dose 0.7-60 µM
[22] = Induction of apoptosis in rat HSC-T6 cells assessed as viable cells at 10 nM pretreated with TGFbeta-1 for 1 day followed by compound addition and measured after 24 hrs by flow cytometry (reference value: 97.5 %); type: functional; details: read-out: Activity
[23] = Induction of apoptosis in rat HSC-T6 cells assessed as late apoptotic cells at 10 nM pretreated with TGFbeta-1 for 1 day followed by compound addition and measured after 24 hrs by flow cytometry (reference value: 1.76 %); type: functional
[24] = Induction of apoptosis in rat HSC-T6 cells assessed as viable cells at 40 nM pretreated with TGFbeta-1 for 1 day followed by compound addition and measured after 24 hrs by flow cytometry (reference value: 97.5 %); type: functional; details: read-out: Activity
[25] = Induction of apoptosis in rat HSC-T6 cells assessed as late apoptotic cells at 80 nM pretreated with TGFbeta-1 for 1 day followed by compound addition and measured after 24 hrs by flow cytometry (reference value: 1.76 %); type: functional

CC(=O)Oc1ccc2[nH]c3c(c2c1)CCN1C(=O)c2cc(F)cc(F)c2N(c2cccc(F)c2)C31 (stereo not given)
IC50 (SK-HEP1 [1]): 60 nM
IC50 at 72 h [2]: 950 nM
inhibition [3]: 56.1%
Activity (Huh-7 [4]): Dde
Activity (Huh-7 [5]): 74.38%
Activity (Huh-7 [6]): 50.27%
Activity (Huh-7 [7]): 13.54%
Activity (Huh-7 [8]): 34.56%
Activity (SK-HEP1 [9]): 25.35%
Activity (SK-HEP1 [10]): 70.47%
Activity (Huh-7 [11]): Dde
Activity (SK-HEP1 [12]): Dde
Activity (Huh-7 [13]): 1.51%
viability at 0.04 µM (Huh-7 [14]): 62.9%
Activity (Huh-7 [15]): 25.6%
Activity (Huh-7 [16]): 10.1%
Activity (SK-HEP1 [17]): 5.25%
Activity (SK-HEP1 [18]): 0.58%
Activity (SK-HEP1 [19]): 2.63%
inhibition (HSC-T6 [20]): Active
Activity (HSC-T6 [21]): Active
viability at 0.01 µM [22]: 89.9%
Activity [23]: 8.67%
viability at 0.04 µM [24]: 85.6%
Activity [25]: 53%

O=C1c2cc(F)cc(F)c2N(c2cccc(F)c2)C2c3[nH]c4ccc(O)cc4c3CCN12 (stereo not given)
IC50 (SK-HEP1 [1]): 70 nM
IC50 at 72 h [2]: 780 nM
inhibition [3]: 43.9%
Activity (Huh-7 [4]): Dde
Activity (Huh-7 [5]): 78.5%
Activity (Huh-7 [6]): 63.75%
Activity (Huh-7 [7]): 26.52%
Activity (Huh-7 [8]): 26.7%
Activity (SK-HEP1 [9]): 21.83%
Activity (SK-HEP1 [10]): 74.07%
Activity (Huh-7 [11]): Dde
Activity (SK-HEP1 [12]): Dde
Activity (Huh-7 [13]): 1.53%
viability at 0.04 µM (Huh-7 [14]): 79.5%
Activity (Huh-7 [15]): 13.5%
Activity (Huh-7 [16]): 4.51%
Activity (SK-HEP1 [17]): 0.91%
Activity (SK-HEP1 [18]): 2.39%
Activity (SK-HEP1 [19]): 2.39%
inhibition (HSC-T6 [20]): Active
Activity (HSC-T6 [21]): Active
viability at 0.01 µM [22]: 94%
Activity [23]: 5.1%
viability at 0.04 µM [24]: 98.3%
Activity [25]: 41.8%
